We go through one molecule from article PMC7504466, “In-Vitro and In-Silico Evaluations of Heterocyclic-Containing Diarylpentanoids as Bcl-2 Inhibitors Against LoVo Colorectal Cancer Cells” (Molecules, 2020).

Experiment [1] relates to SW620 cells. Description: MTT cytotoxicity assay, SW620 cells. It is filed as cell-based. The settings on record: Homo sapiens, SW-620, 72 h post-treatment, read-out: IC50 (µM) KRAS SW620. As for the experimental part:
(§1) The in-vitro cytotoxic activity of the synthesized compounds on seven human CRC cell lines including KRAS (T84, SW620, LoVo) and BRAF (HT29, NCI-H508, RKO and LS411N) mutated cells were determined by MTT assay as previously described. The IC50 values obtained are summarized in Table 2 in which 5-FU and normal human dermal fibroblasts (NHDF) were used as controls. Meanwhile, a heatmap (Figure 3) was also generated using GraphPad Prism v7.0 (GraphPad Software, La Jolla, CA, USA) to visualize the cytotoxic trends of synthesized compounds graphically.
(§2) A panel of KRAS (T84, SW620 and LoVo) and BRAF (HT29, NCI-H508, RKO and LS411N) mutated human CRC cell lines were grown in Dulbecco’s modified Eagle’s medium (DMEM) containing 10% fetal bovine serum (FBS) and 1% penicillin/streptomycin at 37 °C under 5% CO2 while NHDF cells were cultured in DMEM with 5% FBS under the same condition. The culture medium was replenished every two days until the cells reached 80–90% confluency for further usage. All cell lines (T84, ATCC®CCL-248™; SW620, ATCC®CCL-227™; LoVo, ATCC®CCL-229™; HT-29, ATCC®HTB-38; NCI-H508, ATCC®CCL-253™; RKO, ATCC®CRL-2577; LS411N, ATCC®CRL-2159; NHDF, ATCC® PCS-201-010™) were purchased from American Type culture Collections (ATCC, Manassas, VA, USA).
(§3) LoVo cells (1.5–5 × 10^3 cells/well) were seeded into a 96 well plate and incubated at 37 °C and 5% CO2 atmosphere for 24 h. On the following day, the cell media were replaced with 100 µL of test compounds at various concentration. The final concentration of DMSO in the well is 0.1%. After 72 h of incubation, culture medium was removed and 100 µL of MTT (thiazoyl blue tertrazolium bromide) solution (0.5 mg/mL in culture media) was added. The resultant plates were then further incubated at 37 °C for 4 h. Upon completion, the MTT solution was removed and the formazan salts formed were dissolved in 100 µL of DMSO. The absorbance was recorded with a microplate reader at 570 nm. The IC50 values of tested compounds were calculated from three independent experiments.
(In general: Tetrazolium dyes change colour on reduction, which living cells bring about.)

Experiment [2] concerns LoVo cells. The experiment can be described thus: MTT cytotoxicity assay, LoVo cells. In kind it is cell-based. The following applies: Homo sapiens, 72 h post-treatment, read-out: IC50 (µM) KRAS LoVo. The protocol:
as §1, §2, §3

The test system of experiment [3] is HT29 cells. The experiment can be described thus: MTT cytotoxicity assay, HT29 cells. It is filed as cell-based. The settings on record: Homo sapiens, HT-29, 72 h post-treatment, read-out: IC50 (µM) BRAF HT29. As for the experimental part:
as §1, §2, §3

For experiment [4], the system named is RKO cells. Description: MTT cytotoxicity assay, RKO cells. It is filed as cell-based. The settings on record: Homo sapiens, 72 h post-treatment, read-out: IC50 (µM) BRAF RKO. As for the experimental part:
as §1, §2, §3

Experiment [5] deals with LS411N cells. Description: MTT cytotoxicity assay, LS411N cells. In kind it is cell-based. The following applies: Homo sapiens, LS-411N, 72 h post-treatment, read-out: IC50 (µM) BRAF LS411N. The protocol: as §1, §2, §3
Experiment [6] concerns LoVo cells. Description: Cell apoptosis analysis (Annexin V-PE/7-AAD flow cytometry). It is filed as cell-based, human. The protocol: LoVo cells (1 × 10^5 cells/well) were seeded into a 6-well plate and incubated at 37 °C and 5% CO2 atmosphere overnight. The seeded cells were then treated with different concentrations of tested compounds for 24, 48 and 72 h. After treatments, cells were trypsinized and washed with PBS followed by the addition of 1× binding buffer (500 μL), Annexin V-PE (5 μL) and 7-AAD (5 μL) solutions. The resulting mixture was then incubated in the dark at 4 °C for 20 min. Upon completion, the mixture was analysed with a flow-cytometer at the PE and APC channel. The values presented are the means ± SD of three independent experiments.
On the technique in general: Flow cytometry measures light scatter and fluorescence of single cells or particles in a stream.

Experiment [7] concerns cleaved caspase-7. Description: Western blot, cleaved caspase-7. It is filed as cell-based, human. The settings on record: 5 µM, LoVo cells, after 24 h. The protocol: (§4) Lovo cells (1.5 × 10^4 cells/cm^2) were seeded in a T75 flask and incubated at 37 °C and 5% CO2 atmosphere overnight. The seeded cells were then treated with selected compounds at 5 µM of 2e for 24 h, 48 h, and 72 h. After treatment, the cells were harvested and lysed with phenylmethanesulfonyl fluoride (PMSF)-containing cell lysis buffer. The lysates were then centrifuged at 13,300× g for 15 min and the supernatant was collected. Protein concentrations of all samples were determined using a BCA assay kit (Thermo Scientific Inc., Waltham, MA, USA). Equal amounts of protein were electrophoresed in 12% and 20% SDS-polyacrylamide gel (SDS-PAGE), and electro-transferred onto a 0.22-μm polyvinyldene difluoride membrane. Each membrane was blocked with 5% (w/v) skim milk at room temperature for 1 h followed by overnight incubation with specific primary antibodies (1:1000) at 4 °C. Subsequently, the respective membrane was washed thrice with TBST (0.05% (v/v) of tween-20) followed by 1 h incubation with secondary antibody (1:10,000). Upon completion, the membrane was washed thrice with 1X Tris-Buffered Saline, 0.1% Tween® 20 Detergent (TBST) and the immune reactive bands were developed using SuperSignal West Dura Extended Duration Substrate (Thermo Scientific Inc., Waltham, MA, USA). […]

Experiment [8] deals with caspase-8. The experiment can be described thus: Western blot, caspase-8. In kind it is cell-based, human. The following applies: 5 µM, LoVo cells. As for the experimental part:
as §4
Background: A western blot detects proteins with antibodies after separation by electrophoresis.

Experiment [9] concerns Bcl-xL. Description: Western blot, Bcl-xL. In kind it is cell-based, human. The settings on record: 5 µM, LoVo cells, up to 72 h. As for the experimental part: as §4
Experiment [10] has as its system Mcl-1. The experiment can be described thus: Western blot, Mcl-1. In kind it is cell-based, human. The settings on record: 5 µM, LoVo cells, up to 72 h. As for the experimental part:
as §4

The test system of experiment [11] is LoVo cells. Description: Measurement of intracellular ROS levels (DCFH-DA, flow cytometry). In kind it is cell-based, human. The following applies: 5 µM. As for the experimental part:
LoVo cells (1 × 10^5 cells/well) were seeded into a 6-well plate and incubated at 37 °C and 5% CO2 atmosphere overnight. After incubation, the seeded cells were treated with 1 mL of 10 µM DCFDA in culturing media for 1 h. Upon completion, the cells were washed twice with PBS followed by treatments with 5 µM of selected compounds for 24, 48 and 72 h. Then, the treated cells were harvested, washed and re-suspended in PBS followed by flow-cytometric analysis at the FITC channel.

The IC50 is the concentration that gives 50% inhibition. Take `O=C1C(=Cc2ccccc2Br)CSCC1=Cc1ccccc1Br` [Compound 2e, 3,5-Bis(2-bromobenzylidene)tetrahydro-4H-thiopyran-4-one]: the IC50 came out at 1.4 µM in experiment [1]; 1 µM in [2]; 2.1 µM in experiment [3]; 1.2 µM in [4]; 1.3 µM in experiment [5]. For the same molecule, the “lowest in vitro effective dose against LoVo cells” value in experiment [6] came to 2.5 µM. The “cellular apoptosis (annexin V)” value in experiment [6] (0.625 and 1.25 µM) is listed as “minimal insignificant effects”; in [6] (2.5 and 5 µM, 24-72 h), “could induce cellular apoptosis”. For the same molecule, the “cleaved caspase-7 level” value in experiment [7] is “increased”. In addition, the caspase-8 cleavage entry in experiment [8] is recorded as “unaffected”. In addition, the Bcl-xL expression result in [9] is reported as “remained unaffected”. Also, the Mcl-1 expression result in [10] was “remained unaffected”. Also, the “cellular ROS level” value was “rapid increment in cellular ROS level” in [11] (24 h); “secondary increment of cellular ROS” in [11] (48 h and 72 h).
